Data: ChEMBL document CHEMBL1201862, “PubChem BioAssay data set” (2004)
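All cell lines were grown in 96-well plates and treated with compound for 48 hours. At the GI50, growth is halved.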 Calls of active or inactive are those of the source. No stated cut-off is given here; in the data, active = GI50 up to about 1.1 µM and inactive = higher. Where a SMILES comes first, the peptide text is derived from it.

What was measured:
Assay in all cases: NCI-60 cell line screen, 48 h
Hs-578T = system: Hs-578T
T47D = system: T47D
BT-549 = system: BT-549
HCT-15 = system: HCT-15
EKVX = system: EKVX
HCT-116 = system: HCT-116
MDA-MB-435 = system: MDA-MB-435
ACHN = system: ACHN
UO-31 = system: UO-31
SF-268 = system: SF-268
KM12 = system: KM12
PC-3 = system: PC-3
UACC-62 = system: UACC-62
786-0 = system: 786-0
HT-29 = system: HT-29
RXF 393 = system: RXF 393
SW-620 = system: SW-620
SF-539 = system: SF-539
Malme-3M = system: Malme-3M
HCC 2998 = system: HCC 2998

Row | SMILES | GI50 (Hs-578T) | GI50 (T47D) | GI50 (BT-549) | GI50 (HCT-15) | GI50 (EKVX) | GI50 (HCT-116) | GI50 (MDA-MB-435) | GI50 (ACHN) | GI50 (UO-31) | GI50 (SF-268) | GI50 (KM12) | GI50 (PC-3) | GI50 (UACC-62) | GI50 (786-0) | GI50 (HT-29) | GI50 (RXF 393) | GI50 (SW-620) | GI50 (SF-539) | GI50 (Malme-3M) | GI50 (HCC 2998)
1 | CC1(c2ccc(Cl)cc2)c2ccccc2C(=O)N1CCCN1C(=O)c2ccccc2C1=O (stereo unspecified) | 35.4 µM (inactive) | 21.3 µM (inactive) | > 100 µM (inactive) | 34 µM | 3.36 µM (inactive) | 13.6 µM (inactive) | 33.3 µM (inactive) | 29.6 µM (inactive) | 39.9 µM (inactive) | 40.6 µM (inactive) | 20.9 µM (inactive) | 83 µM (inactive) | 30.1 µM (inactive) | 26.2 µM (inactive) | 32.2 µM (inactive) | 29.4 µM (inactive) | 56.8 µM (inactive) |  |  | 
2 | N#CC1C(=O)NC(=O)C(C#N)C1c1ccc(Cl)c(Cl)c1 (stereo unspecified) | 23.1 µM (inactive) | 33.3 µM (inactive) | 33.3 µM (inactive) | 21.5 µM | > 100 µM (inactive) | 13.9 µM (inactive) | 22.7 µM (inactive) | 22.4 µM (inactive) | 16.5 µM (inactive) | 34.8 µM (inactive) | 33.7 µM (inactive) | 28.2 µM (inactive) |  | 20.1 µM (inactive) | 16.7 µM (inactive) | 21 µM (inactive) | 16.7 µM (inactive) | 19.4 µM (inactive) | > 100 µM (inactive) | 
3 | N=C(N)SCc1nc(-c2ccc(Cl)cc2)no1 | 42 µM (inactive) | 11.3 µM (inactive) | 23.2 µM (inactive) | 11.2 µM | 18.5 µM (inactive) | 14.6 µM (inactive) | 12.2 µM (inactive) | 13.3 µM (inactive) |  | 19.3 µM (inactive) | 20.8 µM (inactive) | 14 µM (inactive) | 9.79 µM (inactive) | 14.3 µM (inactive) | 10.2 µM (inactive) | 12.1 µM (inactive) | 12.2 µM (inactive) | 15.8 µM (inactive) | 16.9 µM (inactive) | 
4 | O=C1/C(=C/c2ccc(Cl)cc2)Oc2cc(O)ccc21 [6-HYDROXY-4'-CHLORO AURONE] | 14.7 µM (inactive) | 37.1 µM (inactive) | 26.8 µM (inactive) | 32.6 µM | 29.2 µM (inactive) | 30.5 µM (inactive) | 36.1 µM (inactive) | 28.1 µM (inactive) | 20.5 µM (inactive) | 52.8 µM (inactive) | 38.5 µM (inactive) | 30.2 µM (inactive) | 34.2 µM (inactive) | 33.3 µM (inactive) |  | 39.4 µM (inactive) | 44.6 µM (inactive) | 21.9 µM (inactive) |  | 39.3 µM (inactive)
5 | O=C1NC(=O)C(c2c[nH]c3ccccc23)=C1c1cnc[nH]1 | 64.3 µM (inactive) | > 100 µM (inactive) | 46.3 µM (inactive) | > 100 µM | > 100 µM (inactive) | 41.8 µM (inactive) | 75.3 µM (inactive) | > 100 µM (inactive) | 70.6 µM (inactive) | > 100 µM (inactive) | 45.2 µM (inactive) | > 100 µM (inactive) |  | > 100 µM (inactive) | 66.4 µM (inactive) | > 100 µM (inactive) | 57.3 µM (inactive) | 32.9 µM (inactive) | > 100 µM (inactive) | 
6 | CC(=O)C1(O)Cc2c(O)c3c(c(O)c2C(OC2CC(N)C(O)C(C)O2)C1)C(=O)c1ccccc1C3=O (stereo unspecified) | 0.254 µM (active) | 0.0497 µM (active) | 0.134 µM (active) | 0.0277 µM | 0.193 µM (active) | 0.0279 µM (active) | 0.12 µM (active) | 0.00438 µM (active) | 0.042 µM (active) | 0.0215 µM (active) | 0.0498 µM (active) | 0.247 µM (active) | 0.0303 µM (active) | 0.0152 µM (active) | 0.0252 µM (active) |  | 0.0221 µM (active) | 0.0163 µM (active) | 0.01 µM (active) | 0.0385 µM (active)
7 | COc1ccccc1C[C@@H]1OC2(C=CC(=O)C=C2)O[C@H]1Cc1ccccc1OC | 10 µM (inactive) | 19.2 µM (inactive) | 2.64 µM (inactive) | 5.21 µM | 5.65 µM (inactive) | 1.09 µM (active) | 14.3 µM (inactive) | 7.89 µM (inactive) | 6.35 µM (inactive) | 7.35 µM (inactive) | 8.69 µM (inactive) | 8.69 µM (inactive) | 10.3 µM (inactive) | 1.39 µM (inactive) | 9.02 µM (inactive) | 1.16 µM (inactive) | 1.79 µM (inactive) | 8.75 µM (inactive) | 9.71 µM (inactive) | 
8 | Nc1ccn(C2CC3OCC3O2)c(=O)n1 (stereo unspecified) | > 100 µM (inactive) | > 100 µM (inactive) | > 100 µM (inactive) | > 100 µM | > 100 µM (inactive) | > 100 µM (inactive) | > 100 µM (inactive) | > 100 µM (inactive) | > 100 µM (inactive) | > 100 µM (inactive) | > 100 µM (inactive) | > 100 µM (inactive) | > 100 µM (inactive) | > 100 µM (inactive) | > 100 µM (inactive) |  | > 100 µM (inactive) | > 100 µM (inactive) |  | 
9 | CCn1c2ccccc2c2cc(/N=N\c3ccc(C#N)cc3)ccc21 | 42.1 µM (inactive) | 50.6 µM (inactive) | 20.7 µM (inactive) | > 100 µM | 33.3 µM (inactive) | 50.4 µM (inactive) | > 100 µM (inactive) | > 100 µM (inactive) | 75.7 µM (inactive) | 54.7 µM (inactive) | 83.6 µM (inactive) | > 100 µM (inactive) | 61.4 µM (inactive) | 29 µM (inactive) | 26.5 µM (inactive) |  | > 100 µM (inactive) | 32.8 µM (inactive) | 18.7 µM (inactive) | 
10 | O=[N+]([O-])c1ccc(NS(=O)(=O)C(F)(F)F)cc1 | > 100 µM (inactive) | > 100 µM (inactive) | > 100 µM (inactive) | > 100 µM | > 100 µM (inactive) | > 100 µM (inactive) | > 100 µM (inactive) | > 100 µM (inactive) | > 100 µM (inactive) | > 100 µM (inactive) | > 100 µM (inactive) | > 100 µM (inactive) | > 100 µM (inactive) | > 100 µM (inactive) | > 100 µM (inactive) | > 100 µM (inactive) | > 100 µM (inactive) | > 100 µM (inactive) |  | 
11 | COC(=O)Nc1nc2cc(S(=O)(=O)NC(CC(C)C)C(=O)OC)ccc2[nH]1 (stereo unspecified) | 0.818 µM (active) | 4.19 µM (inactive) | 35.7 µM (inactive) | 2.81 µM | 3.93 µM (inactive) | 2.32 µM (inactive) | 0.396 µM (active) | 11.1 µM (inactive) | 5.96 µM (inactive) | 10.8 µM (inactive) | 2.19 µM (inactive) | 2.37 µM (inactive) | 4.01 µM (inactive) | 3.14 µM (inactive) | 2.81 µM (inactive) | 3.21 µM (inactive) | 3.25 µM (inactive) | 4.48 µM (inactive) | 3.08 µM (inactive) | 
12 | CCC(C)C(NC(=O)C1CCCN1C(=O)C(CC(C)C)NC(=O)C(CC(C)C)NC(=O)C(N)CC(C)C)C(=O)NC(C(=O)NCC(=O)NC(CC(N)=O)C(=O)NC(CC(C)C)C(=O)NC(CC(C)C)C(=O)NC(CC(C)C)C(N)=O)C(C)C (stereo unspecified) (H-LLLPIVGNLLL-NH2; configuration not given here) | > 50 µM (inactive) | > 50 µM (inactive) | > 50 µM (inactive) | > 50 µM | > 50 µM (inactive) | > 50 µM (inactive) | > 50 µM (inactive) | > 50 µM (inactive) | > 50 µM (inactive) | > 50 µM (inactive) | > 50 µM (inactive) | > 50 µM (inactive) | > 50 µM (inactive) | > 50 µM (inactive) | > 50 µM (inactive) |  | > 50 µM (inactive) | > 50 µM (inactive) | > 50 µM (inactive) | 
13 | COc1ccc(CC2C(=O)NC(C)C(=O)N(C)C3C(=O)N(C)C(Cc4ccc(O)c(c4)Oc4ccc(cc4)C3O)C(=O)NC(C)C(=O)NC(C)C(=O)N2C)cc1.COc1ccc(CC2C(=O)NC(C)C(=O)N(C)C3Cc4ccc(cc4)Oc4cc(ccc4O)CC(C(=O)NC(C)C(=O)NC(C)C(=O)N2C)N(C)C3=O)cc1 (stereo unspecified) | 0.01 µM (active) | 0.00446 µM (active) | 0.00321 µM (active) | 0.483 µM | 0.148 µM (active) | 0.00108 µM (active) | 0.004 µM (active) | 0.0995 µM (active) | 0.136 µM (active) | 0.00316 µM (active) | 0.0024 µM (active) | 0.00601 µM (active) | 0.00266 µM (active) | 0.00771 µM (active) | 0.01 µM (active) |  | 0.00718 µM (active) | 0.00102 µM (active) |  | 0.00619 µM (active)
14 | Cc1c(NC(=O)Nc2c(Cl)cccc2Cl)c(=O)n(-c2ccccc2)n1C | > 100 µM (inactive) | > 100 µM (inactive) | > 100 µM (inactive) | > 100 µM | > 100 µM (inactive) | > 100 µM (inactive) | > 100 µM (inactive) | > 100 µM (inactive) | > 100 µM (inactive) | > 100 µM (inactive) | > 100 µM (inactive) | > 100 µM (inactive) | > 100 µM (inactive) | > 100 µM (inactive) | > 100 µM (inactive) | > 100 µM (inactive) | > 100 µM (inactive) | > 100 µM (inactive) | > 100 µM (inactive) | 
15 | NNC(=S)NCCNC(=S)NN | > 100 µM (inactive) | > 100 µM (inactive) | > 100 µM (inactive) |  | > 100 µM (inactive) | > 100 µM (inactive) | > 100 µM (inactive) | > 100 µM (inactive) | > 100 µM (inactive) | > 100 µM (inactive) | > 100 µM (inactive) | > 100 µM (inactive) | > 100 µM (inactive) | > 100 µM (inactive) | > 100 µM (inactive) |  | > 100 µM (inactive) |  | > 100 µM (inactive) | > 100 µM (inactive)
